Measured values published in US20110039762A1, “TARGETED ANTIMICROBIAL MOIETIES” (C3 JIAN, INC., priority 2009, published 2011).
Entries after “also recorded” stand apart in the source; their conditions may differ.

Experiments:
C. jejuni = assay: Kill or inhibit growth/proliferation; morphology, biofilm and growth disruption (Tables 5, 6); format: cell-based, Campylobacter jejuni; design: key: A: Peptide aggregates; B: Less hyphal formation; Clumps; Diffuse clumps and small polyps; F: Diffuse growth; H: Thin; I: Growth inhibition; Microcolony formation; Rippled; Small polyps; Thick; W: Halo formation on top, microlonies on bottom; further: test concentration or dose not given here
[1] = tested on: microorganisms (e.g., bacteria, yeasts, fungi); assay: Targeting peptide binding to target microorganisms (Table 3); conditions: preferably 1x PBS; for Target(s) (microorganisms bound by the targeting peptide): peptide binding in aqueous buffers varied by peptide solubility
microorganisms = assay: Peptides having multiple activities (targeting/binding, antimicrobial, growth or phenotype altering)
Source text: In certain embodiments, peptides described herein can have multiple activities. Thus for example, a peptide can have both binding/targeting activity and antimicrobial activity. Such peptides can be used, e.g., in a chimeric construct, for any or all of these properties. Thus, for example, a peptide designated “B” in Table 8 can be used as a targeting peptide. If it is also designated G or M it can also be used for antimicrobial activity.

B. subtilis = assay: Kill or inhibit growth/proliferation; morphology, biofilm and growth disruption (Tables 5, 6); format: cell-based, Bacillus subtilis; design: key: A: Peptide aggregates; B: Less hyphal formation; Clumps; Diffuse clumps and small polyps; F: Diffuse growth; H: Thin; I: Growth inhibition; Microcolony formation; Rippled; Small polyps; Thick; W: Halo formation on top, microlonies on bottom; further: test concentration or dose not given here
S. epidermidis = assay: as above; format: cell-based, Staphylococcus epidermidis; design: key: A: Peptide aggregates; B: Less hyphal formation; Clumps; Diffuse clumps and small polyps; F: Diffuse growth; H: Thin; I: Growth inhibition; Microcolony formation; Rippled; Small polyps; Thick; W: Halo formation on top, microlonies on bottom
S. pneumoniae = assay: as above; format: cell-based, Streptococcus pneumoniae; design: key: A: Peptide aggregates; B: Less hyphal formation; Clumps; Diffuse clumps and small polyps; F: Diffuse growth; H: Thin; I: Growth inhibition; Microcolony formation; Rippled; Small polyps; Thick; W: Halo formation on top, microlonies on bottom
M. luteus = assay: as above; format: cell-based, Micrococcus luteus; design: key: A: Peptide aggregates; B: Less hyphal formation; Clumps; Diffuse clumps and small polyps; F: Diffuse growth; H: Thin; I: Growth inhibition; Microcolony formation; Rippled; Small polyps; Thick; W: Halo formation on top, microlonies on bottom
MRSA = assay: as above; format: cell-based, Methicillin-resistant Staphylococcus aureus; design: key: A: Peptide aggregates; B: Less hyphal formation; Clumps; Diffuse clumps and small polyps; F: Diffuse growth; H: Thin; I: Growth inhibition; Microcolony formation; Rippled; Small polyps; Thick; W: Halo formation on top, microlonies on bottom
[2] = microorganism the targeting peptide binds, binding in aqueous buffers varied by peptide solubility
[3] = microorganism(s) the targeting peptide binds, binding in aqueous buffers depending on peptide solubility
[4] = microorganism(s) the targeting peptide binds, peptide binding conducted in aqueous buffers varied by peptide solubility
Wherever Organism, effect (morphology, biofilm and growth disruption) is given: test concentration or dose not given here.
Wherever Organism, effect is given: test concentration or dose not given here.

Row | Substance | Organism, effect (C. jejuni) | Activities (microorganisms) | Organism, effect (B. subtilis) | Organism, effect (S. epidermidis) | other results
1 | PF-008: peptide having multiple activities (chain 1 MIEIGSIAYLNGGSKKYNHILNQENR; chain 2 MIEIGSIAYLNGGSKKYNHILNQENR; Peptide with targeting and/or antimicrobial activity) | C. jejuni (R) | G B | B. subtilis (D) | – | Target(s) [1, 2]: S. epidermidis and M. luteus and MRSA and C. jejuni
2 | PF-061: peptide having multiple activities (chain 1 GYNSYKAVQDVKTHSEEQRVTAKK; chain 2 GYNSYKAVQDVKTHSEEQRVTAKK; Peptide with targeting and/or antimicrobial activity) | C. jejuni (R) | G B | B. subtilis (R) | S. epidermidis (R) | Target(s) [1, 2]: S. epidermidis; also recorded: S. pneumoniae; Organism, effect (S. pneumoniae): S. pneumoniae (R)
3 | PF-069: peptide having multiple activities (FDPVPLKKDKSASKHSHKHNH; Peptide with targeting and/or antimicrobial activity) | C. jejuni (R) | G B | B. subtilis (D) | – | Target(s) [1, 2]: E. faecalis; also recorded: C. jejuni
4 | PF-171: peptide having multiple activities (TQVTLCRTW; Peptide with targeting and/or antimicrobial activity) | C. jejuni (R) | G B | B. subtilis (D) | S. epidermidis (R) | Organism, effect (M. luteus): M. luteus (R); Target(s) [1, 3]: S. epidermidis; also recorded: E. coli; also recorded: P. aeruginosa; also recorded: S. pneumoniae; Organism, effect (MRSA): MRSA (M); Organism, effect (S. pneumoniae): S. pneumoniae (D)
5 | PF-292: peptide having multiple activities (SFVSTTVRLIFEESKRYKF; Peptide with targeting and/or antimicrobial activity) | – | G B | B. subtilis (C) | S. epidermidis (C) | Target(s) [1, 3]: S. epidermidis; also recorded: B. subtilis; also recorded: B. fragilis
6 | PF-296 (GAFGMPSIKTNTICGEKGKFISACDAWLSNLK; Peptide with targeting and/or antimicrobial activity) | – | – | B. subtilis (C) | S. epidermidis (C) | –
7 | PF-297: peptide having multiple activities (ISKGIDDIVYVINKILSIGNIFKIIKRK; Peptide with targeting and/or antimicrobial activity) | – | G B | B. subtilis (C) | S. epidermidis (C) | Target(s) [1, 3]: S. epidermidis; also recorded: B. subtilis; also recorded: B. fragilis
8 | PF-301: peptide having multiple activities (GIVLIGLKLIPLLANVLN; Peptide with targeting and/or antimicrobial activity) | – | G B | B. subtilis (C) | S. epidermidis (C) | Target(s) [1, 3]: C. difficile
9 | PF-318 (MGRHLWNPSYFVATVSENTEEQIRKYINNQKKQVK; Peptide with targeting and/or antimicrobial activity) | – | – | B. subtilis (C) | S. epidermidis (C) | –
10 | PF-335 (AAYPIEDWSDWYEDFFIMLSNI; Peptide with targeting and/or antimicrobial activity) | – | – | B. subtilis (C) | S. epidermidis (C) | –
11 | PF-339 (KKIDILINKYMYLSK; Peptide with targeting and/or antimicrobial activity) | – | – | B. subtilis (C) | S. epidermidis (C) | –
12 | PF-342 (AFSGVYKTLIVYTRRK; Peptide with targeting and/or antimicrobial activity) | – | – | B. subtilis (C) | S. epidermidis (C) | –
13 | PF-549: peptide having multiple activities (chain 1 TGIGPIARPIEHGLDS; chain 2 TGIGPIARPIEHGLDS; Peptide with targeting and/or antimicrobial activity) | – | G B | B. subtilis (D) | – | Target(s) [1, 4]: E. coli; also recorded: C. albicans; also recorded: S. pneumoniae; also recorded: C. jeikeium; Organism, effect (MRSA): MRSA (C)
14 | PF-558: peptide having multiple activities (chain 1 ADAPPPLIVRYS; chain 2 ADAPPPLIVRYS; Peptide with targeting and/or antimicrobial activity) | C. jejuni (H) | G B | B. subtilis (D) | S. epidermidis (M) | Target(s) [1, 4]: S. epidermidis; also recorded: E. coli; also recorded: C. albicans; also recorded: C. jeikeium; also recorded: C. jejuni; Organism, effect (MRSA): MRSA (C); Organism, effect (S. pneumoniae): S. pneumoniae (R)
15 | PF-559: peptide having multiple activities (chain 1 SRPGKPGGVSIDVSRDRQDILSNYP; chain 2 SRPGKPGGVSIDVSRDRQDILSNYP; Peptide with targeting and/or antimicrobial activity) | C. jejuni (A) | G B | B. subtilis (C) | – | Target(s) [1, 4]: S. epidermidis; also recorded: M. luteus; also recorded: C. albicans; also recorded: C. jeikeium; also recorded: C. jejuni
16 | PF-560: peptide having multiple activities (chain 1 FGNPFRGFTLAMEADFKKRK; chain 2 FGNPFRGFTLAMEADFKKRK; Peptide with targeting and/or antimicrobial activity) | C. jejuni (A) | G B | B. subtilis (D) | – | Target(s) [1, 4]: S. epidermidis; also recorded: M. luteus; also recorded: E. coli; also recorded: S. pneumoniae; also recorded: C. jeikeium; also recorded: C. jejuni; Organism, effect (MRSA): MRSA (C); Organism, effect (S. pneumoniae): S. pneumoniae (R)
17 | PF-563: peptide having multiple activities (chain 1 RPELDNELDVVQNSASLDKLQASYN; chain 2 RPELDNELDVVQNSASLDKLQASYN; Peptide with targeting and/or antimicrobial activity) | C. jejuni (H) | G B | B. subtilis (D) | – | Target(s) [1, 4]: S. epidermidis; also recorded: M. luteus; also recorded: C. jeikeium; Organism, effect (S. pneumoniae): S. pneumoniae (H)
18 | PF-655: peptide having multiple activities (chain 1 DAPCFDDQFGDLKCQMC; chain 2 DAPCFDDQFGDLKCQMC; Peptide with targeting and/or antimicrobial activity) | – | G B | – | – | Organism, effect (morphology, biofilm and growth disruption) (S. epidermidis): S. epidermidis (R); Target(s) (microorganisms bound by the targeting peptide) [1]: M. smegmatis; Organism, effect (morphology, biofilm and growth disruption) (MRSA): MRSA (M); Organism, effect (morphology, biofilm and growth disruption) (B. subtilis): B. subtilis (H); Organism, effect (morphology, biofilm and growth disruption) (S. pneumoniae): S. pneumoniae (H)
19 | PF-659 (chain 1 TVIST; chain 2 TVIST; Peptide with targeting and/or antimicrobial activity) | – | – | – | – | Organism, effect (morphology, biofilm and growth disruption) (S. epidermidis): S. epidermidis (M); Target(s) (microorganisms bound by the targeting peptide) [1]: Mycobacteria spp; Organism, effect (morphology, biofilm and growth disruption) (MRSA): MRSA (R); Organism, effect (morphology, biofilm and growth disruption) (B. subtilis): B. subtilis (H); Organism, effect (morphology, biofilm and growth disruption) (S. pneumoniae): S. pneumoniae (C)
20 | SIGSMIGMYSFRHKTKHIKFTFGIPFILFLQFLLVYFYILK [PF-319] | – | G B | B. subtilis (C) | S. epidermidis (C) | Target(s) [1, 3]: S. epidermidis; also recorded: B. subtilis; also recorded: C. difficile
